Results: paper PMC3049593 (British Journal of Cancer, 2011)

Test system: HT-29 tumours and metastases
Assay: intrasplenic HT-29 colon xenograft spontaneous metastasis model
Format: in vivo, mice
Description: In the orthotopic Hep3b2.1-7 human liver cancer model, treatment of mice (n=10) began 14 days after inoculation of 2.5 × 10^6 cells. […] To initiate tumour xenografts, MDA-MB-231, PC3, Cal27 and HepG2 cells were injected s.c. into nude mice (n=8) at 4, 5, 2 and 2 × 10^7 cells ml^−1, respectively. […] In the B16F0 lung metastasis model, 2 × 10^5 cells were injected via the tail vein of C57Bl6 mice (n=8). […] Surface lung macrometastases were counted for each group (n=9) upon study termination. In the intrasplenic HT-29 xenograft model, 1 × 10^6 cells in 100 μl were injected into the spleen. […] Solid tumours were measured in two dimensions (length and width) and the tumour volume (cm^3) was calculated using the equation: V=length × width^2 × π/6. The anti-tumour activity was expressed as percent tumour growth inhibition (%TGI). Further details are available in Supplementary Methods. […]
once weekly or Sorafenib (60mg/kg, once daily, p.o.). The treatments were continued for three weeks. The lungs were excised from all mice at the time of culling for metastasis count determination. Surface lung macrometastases were counted for each group upon […]
In the HT-29 model, the lumbar region skin was sterilized with 5% tincture and 75% ethanol, respectively. One-cm-long incision was made to expose the spleen before 1×10^6 cells in 100 µL was injected into the spleen. […]
mg/kg) was administered to mice (n=12) each week (qw) over 8 weeks and surface liver and colon metastatic nodules were counted for each group (n=12) upon study termination. Spleen and liver weights were also measured as indirect assessment of […]
In relevant models, solid tumours were measured in two dimensions (length and width) and the tumour volume (mm3) calculated using the equation V = length × width2 × π/6.The anti-tumour activity was assessed by the comparison of the mean tumour volume of the treated groups to the mean tumour volume of the control group and expressed as the percent Tumour Growth Inhibition (TGI) using the equation: […]

[1] = qw, 20 mg kg^−1, after 8th week of administration

SMILES: CC(C)CCC[C@@H](C)[C@H]1CCC2C3CCC4C[C@@H](O[C@@H]5O[C@H](COS(=O)(=O)[O-])[C@@H](O[C@H]6O[C@H](COS(=O)(=O)[O-])[C@@H](O[C@H]7O[C@H](COS(=O)(=O)[O-])[C@@H](O[C@H]8O[C@H](COS(=O)(=O)[O-])[C@@H](OS(=O)(=O)[O-])[C@H](OS(=O)(=O)[O-])[C@H]8OS(=O)(=O)[O-])[C@H](OS(=O)(=O)[O-])[C@H]7OS(=O)(=O)[O-])[C@H](OS(=O)(=O)[O-])[C@H]6OS(=O)(=O)[O-])[C@H](OS(=O)(=O)[O-])[C@H]5OS(=O)(=O)[O-])CC[C@]4(C)C3CC[C@@]21C.[Na+].[Na+].[Na+].[Na+].[Na+].[Na+].[Na+].[Na+].[Na+].[Na+].[Na+].[Na+].[Na+] (stereo partly drawn) [PG545]
- primary tumour growth (20 mg kg^−1 qw over 8 weeks): significantly reduced primary tumour growth
- TGI (colon metastases) [1]: 93%
- TGI (liver metastases) [1]: 100%
